The molecules below were run against T1, HIV integrase (Human immunodeficiency virus type 1 group M subtype B, UniProt P12497, F1332H) (assay: Determination of enzyme (HIV integrase) inhibitory activity). Conditions: recombinant integrase protein (phenylalanine at codon 185 substituted by histidine); donor/target DNA, absorbance at 450 nm; read-out: Anti-integrase activity (IC50 value).
T1 construct: HIV integrase full length gene; made in house; host or cells: Escherichia coli BL21 (DE3)
Format: biochemical
From the text: The following explains evaluation methods of the HIV integrase inhibitory activity of the compound of the present invention.
HIV integrase full length gene (J. Virol., 67, 425-437 (1993)) in which phenylalanine at codon 185 was substituted by histidine, was inserted between the restriction enzyme NdeI and XhoI sites of plasmid pET21a(+) (Novagen), whereby an integrase expression vector pET21a-INH was constructed.
Escherichia coli recombinant BL21 (DE3) transformed with plasmid pET21a-INH obtained in (i) was shake cultured at 37° C. in a liquid medium containing ampicillin. When the culture reached the logarithmic growth phase, isopropyl-β-D-thiogalactopyranoside was added to promote expression of integrase gene. The culture was continued for 3 hr to promote accumulation of the integrase protein. The recombinant E. coli was collected in pellets by centrifugal separation and preserved at −80° C.
The E. coli was suspended in Lysis buffer (20 mM HEPES (pH 7.5), 5 mM DTT, 10 mM CHAPS, 10% glycerol) containing 1 M sodium chloride and subjected to repeat pressurization and depressurization for rupture, and centrifugal separation at 4° C., 40,000×g, 60 min to recover a water-soluble fraction (supernatant). This was diluted 10-fold with Lysis buffer free of sodium chloride, mixed with SP-Sepharose (Pharmacia Corporation) and stirred at 4° C. for 60 min to allow adsorption of integrase protein to the resin. The resin was washed with Lysis buffer containing 100 mM sodium chloride and the integrase protein was eluted with Lysis buffer containing 1 M sodium chloride.
The eluted integrase protein solution was subjected to a Superdex 75 (Pharmacia Corporation) column for gel filtration. The protein was eluted with Lysis buffer containing 1 M sodium chloride.
The obtained fractions of the integrase protein were collected and preserved at −80° C.
The following DNA synthesized by Greiner was dissolved in TE buffer (10 mM Tris-hydrochloric acid (pH 8.0), 1 mM EDTA) and mixed with donor DNA, target DNA, and each complementary strand (+ and − strands) to 1 μM. The mixture was heated at 95° C. for 5 min, 80° C. for 10 min, 70° C. for 10 min, 60° C. for 10 min, 50° C. for 10 min and 40° C. for 10 min and kept at 25° C. to give a double stranded DNA, which was used for the test.
The donor DNA was diluted with TE buffer to 10 nM, of which 50 μl was added to each well of streptavidin-coated microtiter plate (Roche) and allowed to adsorb at 37° C. for 60 min. The plate was washed with phosphate buffer (Dulbecco's PBS, Sanko Junyaku Co., Ltd.) containing 0.1% Tween 20 and phosphate buffer. Then, a reaction mixture (70 μl) having the following composition, a test substance (10 μl) diluted with the reaction mixture and 100 μg/ml integrase protein (10 μl) were added to each well and reacted at 37° C. for 60 min. Composition of the reaction mixture: 30 mM MOPS (3-morpholinopropanesulfonic acid), 5 mM magnesium chloride, 3 mM DTT (dithiothreitol), 0.1 mg/ml BSA (bovine serum albumin), 5% glycerol, 10% DMSO (dimethyl sulfoxide), 0.01% Tween 20.
Then, 50 nM target DNA (10 μl) was added, and the mixture was reacted at 37° C. for 10 min and washed with phosphate buffer containing 0.1% Tween 20 to stop the reaction.
Then, 100 mU/ml peroxidase labeled anti-digoxigenin antibody solution (Roche, 100 μl) was added, and the mixture was reacted at 37° C. for 60 min, followed by washing with phosphate buffer containing 0.1% Tween 20.
A peroxidase color solution (Bio Rad, 100 μl) was added and allowed to react at room temperature for 4 min. The color reaction was stopped by adding 1N sulfuric acid (100 μl). The absorbance at 450 nm was measured. […]

First: O=C(O)c1ccc2ccc(Cc3cccc(Cl)c3F)cn2c1=O [Example 2, 7-(3-chloro-2-fluorobenzyl)-4-oxo-4H-quinolizine-3-carboxylic acid]
Second: CCc1cc(C(=O)O)c(=O)n2cc(Cc3cccc(Cl)c3F)ccc12 [Example 4, 7-(3-chloro-2-fluorobenzyl)-1-ethyl-4-oxo-4H-quinolizine-3-carboxylic acid]
The IC50 of the first is higher: 100 to 1000 nM for the first, 10 to 100 nM for the second. The second is the more potent here.

`O=C(O)c1cc(CCO)c2ccc(Cc3cccc(Cl)c3F)cn2c1=O` [Example 7, 7-(3-chloro-2-fluorobenzyl)-1-(2-hydroxyethyl)-4-oxo-4H-quinolizine-3-carboxylic acid] and `O=C(O)c1cc(CO)c2ccc(Cc3cccc(Cl)c3F)cn2c1=O` [Example 18, 7-(3-chloro-2-fluorobenzyl)-1-hydroxymethyl-4-oxo-4H-quinolizine-3-carboxylic acid] fall in the same range of IC50: 10 to 100 nM for the first, 10 to 100 nM for the second.

`COc1cc2c([C@H](CO)C(C)C)cc(C(=O)O)c(=O)n2cc1Cc1cccc(Cl)c1F` [Example 10, 7-(3-chloro-2-fluorobenzyl)-1-((R)-1-hydroxymethyl-2-methylpropyl)-8-methoxy-4-oxo-4H-quinolizine-3-carboxylic acid] and `COc1cc2c([C@H](CO)C(C)(C)C)cc(C(=O)O)c(=O)n2cc1Cc1cccc(Cl)c1F` [Example 17, 7-(3-chloro-2-fluorobenzyl)-1-((R)-1-hydroxymethyl-2,2-dimethylpropyl)-8-methoxy-4-oxo-4H-quinolizine-3-carboxylic acid] cannot be ordered by IC50: < 10 nM for the first, < 10 nM for the second.

Compared with `O=C(O)c1ccc2ccc(Cc3ccccc3)cn2c1=O` [Example 11, 7-benzyl-4-oxo-4H-quinolizine-3-carboxylic acid], `NCc1cc(C(=O)O)c(=O)n2cc(Cc3cccc(Cl)c3F)ccc12` [Example 20, 1-aminomethyl-7-(3-chloro-2-fluorobenzyl)-4-oxo-4H-quinolizine-3-carboxylic acid hydrochloric acid] is lower in IC50: 1000 to 10000 nM for the first, 100 to 1000 nM for the second. The second is the more potent here.

Compared with `CCCc1cc(C(=O)O)c(=O)n2cc(Cc3cccc(Cl)c3F)ccc12` [Example 12, 7-(3-chloro-2-fluorobenzyl)-4-oxo-1-propyl-4H-quinolizine-3-carboxylic acid], `COCc1cc(C(=O)O)c(=O)n2cc(Cc3cccc(Cl)c3F)ccc12` [Example 19, 7-(3-chloro-2-fluorobenzyl)-1-methoxymethyl-4-oxo-4H-quinolizine-3-carboxylic acid] is higher in IC50: 10 to 100 nM for the first, 100 to 1000 nM for the second. The first is the more potent here.

`CC(C)c1cc(C(=O)O)c(=O)n2cc(Cc3cccc(Cl)c3F)ccc12` [Example 13, 7-(3-chloro-2-fluorobenzyl)-1-isopropyl-4-oxo-4H-quinolizine-3-carboxylic acid] and `C[C@@H](CO)c1cc(C(=O)O)c(=O)n2cc(Cc3cccc(Cl)c3F)ccc12` [Example 14, 7-(3-chloro-2-fluorobenzyl)-1-((R)-2-hydroxy-1-methylethyl)-4-oxo-4H-quinolizine-3-carboxylic acid] fall in the same range of IC50: 10 to 100 nM for the first, 10 to 100 nM for the second.

First: CC(C)C(CO)c1cc(C(=O)O)c(=O)n2cc(Cc3cccc(Cl)c3F)ccc12 (stereo not shown) [Example 15, 7-(3-chloro-2-fluorobenzyl)-1-(1-hydroxymethyl-2-methylpropyl)-4-oxo-4H-quinolizine-3-carboxylic acid]
Second: CC(C)(C)[C@@H](CO)c1cc(C(=O)O)c(=O)n2cc(Cc3cccc(Cl)c3F)ccc12 [Example 16, 7-(3-chloro-2-fluorobenzyl)-1-((R)-1-hydroxymethyl-2,2-dimethylpropyl)-4-oxo-4H-quinolizine-3-carboxylic acid]
The IC50 of the first is higher: 10 to 100 nM for the first, < 10 nM for the second. The second is the more potent here.

Compared with `CNCc1cc(C(=O)O)c(=O)n2cc(Cc3cccc(Cl)c3F)ccc12` [Example 21, 7-(3-chloro-2-fluorobenzyl)-1-methylaminomethyl-4-oxo-4H-quinolizine-3-carboxylic acid], `CC(=O)NCc1cc(C(=O)O)c(=O)n2cc(Cc3cccc(Cl)c3F)ccc12` [Example 22, 1-(acetylaminomethyl)-7-(3-chloro-2-fluorobenzyl)-4-oxo-4H-quinolizine-3-carboxylic acid] is lower in IC50: 100 to 1000 nM for the first, 10 to 100 nM for the second. The second is the more potent here.

From patent publication US7745459B2, “Quinolizinone compound and use thereof as HIV integrase inhibitor” (Japan Tobacco Inc., priority 2004, dated 2010)
